Experimental data taken from ChEMBL document CHEMBL1134756, “Synthesis and evaluation of a difluoromethylene analogue of sphingomyelin as an inhibitor of sphingomyelinase” (Bioorg Med Chem Lett, 2001).

How the values were obtained:
[1] = Inhibitory potency of compound against neutral (N-) SMase activity in bovine liver microsomes(Ms) at concentration of 400 uM; details: Microsome
Bos taurus = species: Bos taurus; test: Inhibitory potency of compound against ceramide synthase activity in bovine liver microsomes(Ms) at concentration of 400 uM; details: Microsome
[2] = Inhibitory potency of compound against neutral (N-) SMase activity in Bacillus cereus at concentration of 400 uM
[3] = tested on: Sphingomyelin phosphodiesterase 1 (acid sphingomyelinase) (Bos taurus); test: Inhibitory potency of compound against acidic (A-) SMase activity in bovine brain lysosomes microsomes(Ms) at concentration of 400 uM; details: Microsome
[4] = Inhibitory potency of compound against neutral (N-) SMase activity in bovine brain microsomes(Ms) at concentration of 400 uM; details: Microsome
Homo sapiens = species: Homo sapiens; test: Inhibitory concentration against […] induced IL1-beta production in human peripheral monocytes; assay type: functional

**Q.** For `CCCCCCCCCCCCCCCCCC(=O)N[C@H](C(O)c1ccccc1)C(O)C(F)(F)P(=O)(O)O` (stereo partly specified), which inhibition [1] is on record?
**A.** Its inhibition is 15%.

**Q.** What about the inhibition (Bos taurus) of the same compound?
**A.** The inhibition was 0%.

**Q.** And the inhibition [2]?
**A.** Its inhibition is 0%.

**Q.** And the inhibition [3]?
**A.** Its inhibition is 80%.

**Q.** And the inhibition [4]?
**A.** Its inhibition is 50%.

**Q.** Which IC50 (Homo sapiens) does the source give for `CC[C@@H](C)/C=C(\C)C[C@@H](C)C[C@@H](C)/C=C/C=C/C=C/C(=O)N[C@H](CO)C[C@@]1(O)C(=O)C=C[C@@H]2O[C@@H]21` [SCYPHOSTATIN] here?
**A.** The IC50 was 100 nM.
